Laboratory results taken from US12643859B2, “Pyridyl oxycarboxylic acid oxime derivative and preparation method therefor, weeding composition and application thereof” (Qingdao Kingagroot Chemical Compound Co., Ltd., priority 2018, dated 2026).

Tests used:
Type in all cases: in vivo
Indica rice = assay: Post-emergence test experiment, crop selectivity; settings: post-emergence spray, 600 g a.i./ha plus water 450 kg/ha, 3 weeks in greenhouse
Description: (§1) The above described growth inhibition rate is fresh weight inhibition rate.
(§2) Post-emergence test experiment: Monocotyledonous and dicotyledonous weed seeds and main crop seeds (i. e. wheat, corn, rice, soybean, cotton, oilseed, millet and sorghum.) were put into a plastic pot loaded with soil. Then covered with 0.5-2 cm soil, the seeds were allowed to grow in good greenhouse environment. The test plants were treated at 2-3 leaf stage 2 weeks after sowing. The test compounds of the invention were dissolved with acetone respectively, then added with tween-80, and using 1.5 liters per hectare of an emulsible concentrate of methyl oleate as a synergist, and diluted by certain amount of water to certain concentration. The solution was sprayed to the plants with a sprayer. Then the plants were cultured for 3 weeks in the greenhouse, and the experiment result of weed controlling effect was listed in tables 3-4.

Japonica rice = assay: Post-emergence test experiment, crop selectivity; settings: post-emergence spray, 600 g a.i./ha plus water 450 kg/ha, 3 weeks in greenhouse
Description: as §1, §2

Cyperus iria = assay: Post-emergence test experiment, weed control; settings: post-emergence spray, 600 g a.i./ha plus water 450 kg/ha, 3 weeks in greenhouse
Description: as §1, §2

[1] = system: Monocotyledonous and dicotyledonous weed seeds and main crop seeds; assay: Post-emergence test experiment (Table 3, 1000 g a.i./ha); settings: 3 weeks in greenhouse, fresh weight inhibition
Summary of the method: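 Weeds and crops (wheat, corn, rice, soybean, cotton, oilseed, millet, sorghum) grown in soil in the greenhouse and sprayed post-emergence at 2–3 leaf stage, 2 weeks after sowing. Compound in acetone with tween-80 plus methyl oleate emulsible concentrate (1.5 L/ha) as synergist, diluted in water. Fresh weight inhibition scored after 3 weeks.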

Compound	Activity level (fresh weight growth inhibition rate), Indica rice (Indica rice)	Activity level (fresh weight growth inhibition rate), Japonica rice (Japonica rice)	Activity level (fresh weight growth inhibition rate), Cyperus iria (Cyperus iria)	Activity level (growth inhibition rate) Digitaria sanguinalis [1]	Activity level (growth inhibition rate) Echinochloa crusgalli [1]	Activity level (growth inhibition rate) Galium spurium [1]	Activity level (growth inhibition rate) Leptochloa chinensis [1]	Activity level (growth inhibition rate) Monochoria Vaginalis [1]	Activity level (growth inhibition rate) Murdannia triquetra [1]	Activity level (growth inhibition rate) Setaria viridis [1]
CC(Oc1nc(F)c(Cl)c(N)c1Cl)C(=O)ON=C(c1ccc(N(C)C)cc1)[N+](=O)[O-] (centres unmarked) [Compound 90]	0 (Level 0: the growth inhibition rate is less than 5%)	0 (Level 0: the growth inhibition rate is less than 5%)	5 (Level 5: the growth inhibition rate is greater than 85%)	5 (Level 5: the growth inhibition rate is greater than 85%)	5 (Level 5: the growth inhibition rate is greater than 85%)	5 (Level 5: the growth inhibition rate is greater than 85%)	5 (Level 5: the growth inhibition rate is greater than 85%)	5 (Level 5: the growth inhibition rate is greater than 85%)	5 (Level 5: the growth inhibition rate is greater than 85%)	5 (Level 5: the growth inhibition rate is greater than 85%)
CC=COc1ccc(C(=NOC(=O)C(C)Oc2nc(F)c(Cl)c(N)c2Cl)C(=O)OCC)cc1 (centres unmarked) [Compound 92]	0 (Level 0: the growth inhibition rate is less than 5%)	0 (Level 0: the growth inhibition rate is less than 5%)	5 (Level 5: the growth inhibition rate is greater than 85%)	5 (Level 5: the growth inhibition rate is greater than 85%)	5 (Level 5: the growth inhibition rate is greater than 85%)	5 (Level 5: the growth inhibition rate is greater than 85%)	5 (Level 5: the growth inhibition rate is greater than 85%)	5 (Level 5: the growth inhibition rate is greater than 85%)	5 (Level 5: the growth inhibition rate is greater than 85%)	5 (Level 5: the growth inhibition rate is greater than 85%)
CCC(=NOC(=O)C(C)Oc1nc(F)c(Cl)c(N)c1Cl)C(=O)NCc1ccc(C)cc1 (centres unmarked) [Compound 100]	0 (Level 0: the growth inhibition rate is less than 5%)	0 (Level 0: the growth inhibition rate is less than 5%)	5 (Level 5: the growth inhibition rate is greater than 85%)	5 (Level 5: the growth inhibition rate is greater than 85%)	5 (Level 5: the growth inhibition rate is greater than 85%)	5 (Level 5: the growth inhibition rate is greater than 85%)	5 (Level 5: the growth inhibition rate is greater than 85%)	5 (Level 5: the growth inhibition rate is greater than 85%)	5 (Level 5: the growth inhibition rate is greater than 85%)	5 (Level 5: the growth inhibition rate is greater than 85%)
CC(Oc1nc(F)c(Cl)c(N)c1Cl)C(=O)ON=C(C(=O)NCc1ccco1)c1ccccc1 (centres unmarked) [Compound 104]	0 (Level 0: the growth inhibition rate is less than 5%)	0 (Level 0: the growth inhibition rate is less than 5%)	5 (Level 5: the growth inhibition rate is greater than 85%)	5 (Level 5: the growth inhibition rate is greater than 85%)	5 (Level 5: the growth inhibition rate is greater than 85%)	5 (Level 5: the growth inhibition rate is greater than 85%)	5 (Level 5: the growth inhibition rate is greater than 85%)	5 (Level 5: the growth inhibition rate is greater than 85%)	5 (Level 5: the growth inhibition rate is greater than 85%)	5 (Level 5: the growth inhibition rate is greater than 85%)
CC(Oc1nc(F)c(Cl)c(N)c1Cl)C(=O)ON=C1CCCC1 (centres unmarked) [Compound 117]	0 (Level 0: the growth inhibition rate is less than 5%)	0 (Level 0: the growth inhibition rate is less than 5%)	5 (Level 5: the growth inhibition rate is greater than 85%)	5 (Level 5: the growth inhibition rate is greater than 85%)	5 (Level 5: the growth inhibition rate is greater than 85%)	5 (Level 5: the growth inhibition rate is greater than 85%)	5 (Level 5: the growth inhibition rate is greater than 85%)	5 (Level 5: the growth inhibition rate is greater than 85%)	5 (Level 5: the growth inhibition rate is greater than 85%)	5 (Level 5: the growth inhibition rate is greater than 85%)
